Each structure is given as a SMILES string. Read-outs that look alike come from different tables or passages of the source.

Common to all, as to type: cell-based, human
The test system of one assay is H2122. The assay can be described thus: Cell viability dose-response, H2122. Particulars: Homo sapiens; for AC50: NCI-H2122, Table 8, 12-point dose-response starting at 50 micromolar. In short, it runs like this: (§1)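 Cells plated at 15% confluence in RPMI-1640 with 5% FBS and 2 mM L-glutamine, treated with compound in a 12-point, 3-fold dilution series from 50 micromolar, in duplicate. ATP measured by Cell Titer Glo after 4 days; IC50 taken from the dose-response curve.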

For the next assay, the system named is HCC44. Nature of the assay: Cell viability dose-response, HCC44. Conditions: Homo sapiens; for AC50: HCC44, Table 8, 12-point dose-response starting at 50 micromolar. How it is done:
(§2) FIG. 6A. […] Cell viability is plotted vs. compound concentration. Compound was added to cells plated at 15% confluence in 96-well plates in RPMI-1640 media supplemented with 5% Fetal Bovine Serum and 2 mM L-Glutamine. After 4 days of incubation, ATP levels were measured using Cell Titer Glo (Promega). Data are presented as the average of 2 replicates ±SEM.
(§3) Selectivity may be measured by the half maximal inhibitory concentration (IC50), which, as used herein, is a measure of the effectiveness of a compound in killing cells. This quantitative measure indicates how much of a particular compound is needed to kill a particular cell population by half (e.g., as indicated by the amount of ATP). […] The IC50 can be determined by constructing a dose-response curve. The lower the IC50, the higher the potency, and the greater the difference between IC50 values for different cell lines (e.g., sensitive lines vs. insensitive lines, and sensitive lines vs. normal lines) the greater the selectivity. […]
(§4) With this information, we synthesized and tested a series of small molecules derived in conception from the oxalamide and chromone scaffold including N-acyl ureas, as shown in Tables 6-8. Each compound was tested in a 12-point dose-response study starting at 50 micromolar and decreasing in 3-fold increments to sub-nanomolar concentrations, in duplicate. Additionally, one or more additional cell line was tested in the same way.

The subject of a further assay is H2009. Nature of the assay: Cell viability dose-response, H2009. Conditions: Homo sapiens; for IC50: NCI-H2009; for AC50: NCI-H2009, Table 8. How it is done:
as §2, §3, §4

In a further assay the test system is H1819. Nature of the assay: Cell viability dose-response, H1819. Particulars: Homo sapiens, NCI-H1819, Tables 3 and 4; read-out: IC50 (uM) vs indicated non-small cell lung cancer cell line H1819. In short, it runs like this:
as §1

Setting [1] is: NCI-H2122, Tables 3 and 4, read-out: IC50 (uM) vs indicated non-small cell lung cancer cell line H2122.
The mark [2] stands for this setting: HCC44, Tables 3 and 4, read-out: IC50 (uM) vs indicated non-small cell lung cancer cell line HCC44.
Where [3] appears, read: Tables 3 and 4, read-out: IC50 (uM) vs indicated non-small cell lung cancer cell line H2009.
Where [4] appears, read: 12-point dose-response starting at 50 micromolar.
Setting [5] is: NCI-H2122, 12-point dose-response starting at 50 micromolar, 3-fold increments, in duplicate, read-out: toxicity data, H2122.
Setting [6] is: NCI-H2122, Table 9, competitor, read-out: IC50 to H2122 cells.
[7] abbreviates: HCC44, 12-point dose-response starting at 50 micromolar, 3-fold increments, in duplicate, read-out: toxicity data, HCC44.
Where [8] appears, read: 12-point dose-response starting at 50 micromolar, 3-fold increments, in duplicate, read-out: toxicity data, H2009.

As for `O=C(Nc1nccs1)c1ccc(C(=O)c2ccccc2)cc1` [SW208771-1], the IC50 in the assay with H2122 (setting [1]) worked out at 32.9 µM; in the assay with HCC44 (setting [2]), 8.43 µM; with H2009 (setting [3]) it was 49.5 µM.

As a reminder, the AC50 is the midpoint of the concentration-response curve, whichever way the signal moves. Take `O=c1c(Oc2ccccc2F)coc2cc(OCc3cnn(-c4ccc(F)cc4)c3)ccc12` [SW208468]: the figures for the AC50 in the assay with H2122, in the assay with HCC44 and in the assay on H2009 (setting [4]) were no less than 49.5 µM, 49.5 µM and 22.3 µM, respectively.

Regarding `O=c1c(-c2cccc(O)c2)coc2cc(OCc3cnn(-c4ccccc4)c3)ccc12` [SW208740], the AC50 in the assay with H2122 worked out at 21 µM; with HCC44 it was 49.5 µM; in the assay on H2009 (setting [4]) it was 39 µM.

On to `COc1ccc(CCNC(=O)NC(=O)c2ccc(-c3ccccc3)cc2)cc1` [SW208393-1-A], for which the IC50 was 0.17 µM in the assay on H2122 (setting [5]), 0.115 µM in the assay with H2122 (setting [6]), no less than 49.5 µM in the assay with HCC44 (setting [7]) and no less than 49.5 µM with H2009 (setting [8]).

Take `O=c1c(C2=CCCCC2)coc2cc(OCc3cnn(-c4ccccc4)c3)ccc12` [SW208764-1]: the concentration at half-maximal activity (AC50) was no less than 49.5 µM in the assay with H2122, 49.5 µM in the assay with HCC44 and 49.5 µM with H2009 (setting [4]).

As for `COc1ccc(CCNC(=O)NC(=O)c2cccc(-c3ccc(OC)cc3)c2)cc1` [SW208386-1-A], the IC50 in the assay on H2122 (setting [5]) was no less than 49.5 µM; in the assay on HCC44 (setting [7]), no less than 49.5 µM; with H2009 (setting [8]), 13.1 µM.

For `C#CCOc1ccc2nc(NC(=O)c3ccc(C4(C(F)(F)F)N=N4)cc3)sc2c1` [SW208700-1], the IC50 in the assay with H2122 (setting [1]) came to 7.92 µM; with HCC44 (setting [2]), 49.5 µM.

In the case of `COc1ccc(CCNC(=O)NC(=O)c2ccc(O)cc2)cc1` [SW208565-1-A], the results for the IC50 in the assay on H2122 (setting [5]), in the assay with HCC44 (setting [7]) and in the assay on H2009 (setting [8]) were 18 µM, 2.75 µM and 5.9 µM, respectively.

For `COc1ccc(CCNC(=O)NC(=O)c2ccc(C(=O)NC3CCC3)cc2)cc1` [SW208453-1-A], the IC50 with H2122 (setting [5]) is 0.864 µM; in the assay on HCC44 (setting [7]), no less than 49.5 µM; in the assay on H2009 (setting [8]), 1.63 µM.

For the compound `COc1ccc(CCNC(=O)NC(=O)c2ccc(C(=O)c3ccccc3)cc2)cc1` [SW208222-1-A], the IC50 stood at 0.105 µM with H2122 (setting [5]), 0.142 µM in the assay with H2122 (setting [6]), 0.241 µM in the assay with HCC44 (setting [7]) and 48 µM in the assay with H2009 (setting [8]).

In the case of `Cc1cccc(Oc2coc3cc(OCc4cnn(-c5ccccc5)c4)ccc3c2=O)c1` [SW 208595-1], the AC50 came out at 0.2 µM in the assay with H2122, 0.1 µM with HCC44 and 16.5 µM with H2009 (setting [4]).

As to `COc1ccc(CCNC(=O)NC(=O)c2ccc(C(=O)NC3CCCC3)cc2)cc1` [SW208454-1-A], the IC50 in the assay with H2122 (setting [5]) was 0.939 µM; in the assay on HCC44 (setting [7]), no less than 49.5 µM; with H2009 (setting [8]) it was no less than 49.5 µM.

`O=c1c(C2CC2)coc2cc(OCc3cnn(-c4ccccc4)c3)ccc12` [SW208766-1]: the AC50 in the assay on H2122 came out at 16.5 µM; in the assay on HCC44 it was 49.5 µM; in the assay on H2009 (setting [4]), 49.5 µM.

`COc1ccc(CCNC(=O)NC(=O)c2ccc(C(=O)N3CCOCC3)cc2)cc1` [SW208408-1-A]: the IC50 in the assay with H2122 (setting [5]) is no less than 49.5 µM; in the assay on HCC44 (setting [7]), no less than 49.5 µM; with H2009 (setting [8]), 46.9 µM.

With `O=c1c(-c2ccc3ccccc3c2)coc2cc(OCc3cnn(-c4ccccc4)c3)ccc12` [SW208761-1], the AC50 with H2122 was no less than 49.5 µM; in the assay with HCC44, 49.5 µM; with H2009 (setting [4]), 32.4 µM.

Take `O=c1c(Oc2ccccc2F)coc2cc(OCc3cnn(-c4ccc(Cl)cc4)c3)ccc12` [SW208469]: the AC50 with H2122 was no less than 49.5 µM; in the assay with HCC44, 49.5 µM; in the assay on H2009 (setting [4]), 16.5 µM.

With `COc1ccc(CCNC(=O)NC(=O)c2ccc(Oc3ccccc3)cc2)cc1` [SW208456-1-A], the IC50 was 0.031 µM in the assay on H2122 (setting [5]), 0.022 µM with HCC44 (setting [7]) and no less than 49.5 µM in the assay with H2009 (setting [8]).

For the compound `COc1ccc(-c2coc3cc(OCc4cnn(-c5ccccc5)c4)ccc3c2=O)c(C)c1` [SW208767-1], the results for the AC50 in the assay with H2122, with HCC44 and in the assay on H2009 (setting [4]) were 2.07 µM, 4.06 µM and 49.5 µM, respectively.

As for `O=c1c(Oc2ccccc2Br)coc2cc(OCc3cnn(-c4ccccc4)c3)ccc12` [SW 208585-1], the AC50 in the assay with H2122 was found to be 0.1 µM; with H2009 (setting [4]), 35 µM.

On to `Nc1nc2cc([N+](=O)[O-])ccc2s1` [SW053525], for which the IC50 in the assay on H2009 (setting [3]) worked out at 1530 µM; in the assay on H1819, 182 µM.

Take `O=c1c(-c2ccccc2F)coc2cc(OCc3cnn(-c4ccccc4)c3)ccc12` [SW208734]: the AC50 in the assay on H2122 was no less than 49.5 µM; with HCC44, 49.5 µM.

As to `O=C(Nc1nc2ccc(O)cc2s1)c1ccc(C(=O)c2ccccc2)cc1` [SW202864-1], the results for the IC50 with H2122 (setting [6]), in the assay on H2122 (setting [1]) and in the assay with HCC44 (setting [2]) were 0.256 µM, 30.8 µM and 38.6 µM, respectively.

For the origin of these results see patent publication US9789096B2, “Methods and compositions for selective and targeted cancer therapy” (Board of Regents of the University of Texas System, priority 2013, dated 2017).
